What was measured:
[1] = target: T1, human FADS2 (Homo sapiens, UniProt O95864); assay: In vitro FADS2 activity assay (HEK 293 cells with FADS2 BacMam, 13C-LA substrate); assay type: cell-based
T1 construct: expressed in transfected cells; host or cells: HEK 293 cells transduced with FADS2 BacMam (MOI 25)
T1 sequence (O95864 1-444): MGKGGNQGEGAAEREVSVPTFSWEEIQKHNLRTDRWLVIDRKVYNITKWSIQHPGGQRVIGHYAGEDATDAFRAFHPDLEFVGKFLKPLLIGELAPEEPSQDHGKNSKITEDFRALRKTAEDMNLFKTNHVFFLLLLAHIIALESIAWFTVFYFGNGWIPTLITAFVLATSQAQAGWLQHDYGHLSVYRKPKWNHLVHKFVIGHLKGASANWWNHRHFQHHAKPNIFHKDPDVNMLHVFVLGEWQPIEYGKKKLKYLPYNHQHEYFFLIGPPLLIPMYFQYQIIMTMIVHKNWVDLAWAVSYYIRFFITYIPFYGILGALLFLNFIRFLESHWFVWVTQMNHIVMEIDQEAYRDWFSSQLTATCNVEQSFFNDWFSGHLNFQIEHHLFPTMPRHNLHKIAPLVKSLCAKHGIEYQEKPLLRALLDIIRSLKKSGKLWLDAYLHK
Description: (§1) HEK 293 cells in Dulbecco's Modified Eagle's medium (DMEM), 10% fetal bovine serum (FBS), 1× penicillin-streptomycin-glutamine (PSG) were mixed with FADS1 BacMam or FADS2 BacMam reagents at multiplicity of infection (MOI) ratio of 25 and plated in a in 96-well poly-D-lysine-coated plate. Plates were incubated in a 37° C., 5% CO2 for 24 hours. Cells were washed with DPBS and cells were incubated with […] of compound dilution in DPBS at 5% CO2, 37° C. for 20 minutes. Ten L of the substrate, ^13C5-DGLA (FADS1), or 13C-LA (FADS2) diluted in DPBS were added to the cells and incubated at 5% CO2, 37° C. for 30 minutes (FADS1) or 45 minutes (FADS2). Cells were then washed with DPBS and 50 μL of 2N NaOH were added to each well and incubated in a 65° C. oven for 1 hour for the saponification reaction. After cooling to room temperature, 22 μl of formic acid was added followed by the addition of 113 μl of acetonitrile with 1.5 μM ALA-d14 as the internal standard. Samples were then subjected to LC-MS/MS detection for the following analytes for the FADS1 reaction: ^13C5-DGLA and ^13C5-AA or the following analytes for the FADS2 reaction: ^13C18-LA, ^13C18-GLA, ^13C18-DGLA and ^13C18-AA. […]
(§2) The analyte peak areas were quantified by using the Analyst software (SCIEX, Framingham, MA). The percent of substrate to product conversion relative to untreated control were calculated (percent of control [POC]). […]

[2] = target: T2, FADS2 (Mus musculus, UniProt Q9Z0R9); assay: FADS2 inhibition by SC-26196 in DIO mice, plasma PUFA ratios; assay type: in vivo
T2 construct: from tissue; host or cells: living DIO mice; plasma GLA/LA and AA/DGLA ratios
T2 sequence (Q9Z0R9 1-444): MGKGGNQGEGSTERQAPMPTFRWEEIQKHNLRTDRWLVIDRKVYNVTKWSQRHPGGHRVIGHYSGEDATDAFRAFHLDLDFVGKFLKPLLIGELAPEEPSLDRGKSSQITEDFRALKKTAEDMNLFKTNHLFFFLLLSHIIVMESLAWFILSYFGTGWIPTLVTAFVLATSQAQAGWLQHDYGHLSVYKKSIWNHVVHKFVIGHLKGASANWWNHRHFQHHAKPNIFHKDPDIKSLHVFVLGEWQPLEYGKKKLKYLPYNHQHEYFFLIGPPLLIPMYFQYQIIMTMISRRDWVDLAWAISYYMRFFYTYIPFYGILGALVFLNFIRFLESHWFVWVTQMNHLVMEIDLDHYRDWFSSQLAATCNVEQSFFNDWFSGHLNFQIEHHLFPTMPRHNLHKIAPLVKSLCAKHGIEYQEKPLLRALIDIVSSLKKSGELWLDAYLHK
Description: FIG. 12 One-way ANOVA with Dunnett's test for multiple comparisons, *P<0.05, **P<0.01, ***P<0.001, ****P<0.0001.
Ten microliter of plasma or PUFA standards diluted in surrogate matrix (60 g/l bovine serum albumin in Dulbecco's phosphate-buffered saline [DPBS]) were mixed with 10 μl of ALA-d14 as the internal stand in a 96-well plate. 100 μl of 2N NaOH was added to the mixture for subsequent saponification at 65° C. for 1 hour. The mixture was then acidified with 50 μl of formic acid followed by two consecutive 500 μl hexane extractions. The organic extracts from the two extractions were combined and the solvent was evaporated under nitrogen gas. Extracts were then resuspended in 250 μl of 90% methanol and analyzed by liquid chromatography with tandem mass spectrometry (LC-MS/MS) for the following PUFAs: LA, GLA, DGLA, and AA, with ALA-d14 as the internal standard. The PUFA peak areas were quantified by using the Analyst software (SCIEX, Framingham, MA).

[3] = target: T3, human FADS1 (Homo sapiens, UniProt O60427); assay: In vitro FADS1 activity assay (HEK 293 cells with FADS1 BacMam, 13C5-DGLA substrate); assay type: cell-based; conditions: in vitro human FADS1 activity assay
T3 construct: expressed in transfected cells; host or cells: HEK 293 cells transduced with FADS1 BacMam (MOI 25)
T3 sequence (O60427 whole entry): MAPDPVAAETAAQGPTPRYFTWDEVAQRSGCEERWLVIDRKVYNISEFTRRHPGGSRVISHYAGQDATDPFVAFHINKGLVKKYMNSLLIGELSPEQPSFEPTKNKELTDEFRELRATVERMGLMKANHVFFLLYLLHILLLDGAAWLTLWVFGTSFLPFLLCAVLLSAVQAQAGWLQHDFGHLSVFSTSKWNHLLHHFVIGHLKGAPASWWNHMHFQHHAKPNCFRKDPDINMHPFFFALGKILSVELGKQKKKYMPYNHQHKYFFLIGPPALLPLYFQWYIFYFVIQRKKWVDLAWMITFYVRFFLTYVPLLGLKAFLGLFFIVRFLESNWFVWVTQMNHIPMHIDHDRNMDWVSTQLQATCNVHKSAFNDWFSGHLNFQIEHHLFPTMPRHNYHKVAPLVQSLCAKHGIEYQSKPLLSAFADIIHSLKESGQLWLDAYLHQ
Description: HEK 293 cells in Dulbecco's Modified Eagle's medium (DMEM), 10% fetal bovine serum (FBS), 1× penicillin-streptomycin-glutamine (PSG) were mixed with FADS1 BacMam or FADS2 BacMam reagents at multiplicity of infection (MOI) ratio of 25 and plated in a in 96-well poly-D-lysine-coated plate. Plates were incubated in a 37° C., 5% CO2 for 24 hours. Cells were washed with DPBS and cells were incubated with 90 ml of compound dilution in DPBS at 5% CO2, 37° C. for 20 minutes. Ten L of the substrate, ^13C5-DGLA (FADS1), or 13C-LA (FADS2) diluted in DPBS were added to the cells and incubated at 5% CO2, 37° C. for 30 minutes (FADS1) or 45 minutes (FADS2). Cells were then washed with DPBS and 50 μL of 2N NaOH were added to each well and incubated in a 65° C. oven for 1 hour for the saponification reaction. […] Samples were then subjected to LC-MS/MS detection for the following analytes for the FADS1 reaction: ^13C5-DGLA and ^13C5-AA or the following analytes for the FADS2 reaction: ^13C18-LA, ^13C18-GLA, ^13C18-DGLA and ^13C18-AA. Samples were injected onto a Poroshell 120 EC-C18 3.0×50 mm, 1.9 um id column (Agilent, Santa Clara, CA).

[4] = target: T4, mouse FADS1 (Mus musculus, UniProt Q920L1); assay: Mouse FADS1 cell-based assay; conditions: in vitro mouse FADS1 activity assay
T4 sequence (Q920L1 1-447): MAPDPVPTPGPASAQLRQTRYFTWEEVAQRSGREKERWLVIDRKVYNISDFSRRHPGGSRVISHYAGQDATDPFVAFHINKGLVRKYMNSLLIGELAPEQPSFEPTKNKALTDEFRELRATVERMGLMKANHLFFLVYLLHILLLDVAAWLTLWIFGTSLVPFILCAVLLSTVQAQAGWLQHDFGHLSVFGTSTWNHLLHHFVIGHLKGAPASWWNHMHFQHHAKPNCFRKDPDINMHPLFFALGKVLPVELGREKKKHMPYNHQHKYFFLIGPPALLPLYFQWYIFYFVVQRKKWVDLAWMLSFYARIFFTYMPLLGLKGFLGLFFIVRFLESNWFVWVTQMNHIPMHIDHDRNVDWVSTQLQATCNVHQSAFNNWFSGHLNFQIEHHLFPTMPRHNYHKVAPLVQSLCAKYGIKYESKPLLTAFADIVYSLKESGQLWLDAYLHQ
Description: as §1, §2

N#CC(CCCN1CCN(/N=C/c2cccnc2)CC1)(c1ccccc1)c1ccccc1 [SC-26196]
effect on FADS2 activity [1]: FADS2 specific inhibitor | plasma AA/DGLA ratio [2]: increased | plasma GLA/LA ratio [2]: affects | effect on FADS1 activity [3]: does not affect FADS1 activity | effect on FADS1 activity [4]: does not affect FADS1 activity

From patent publication US20260183297A1, “SELECTION OF PATIENTS FOR THE TREATMENT OF FADS1-MEDIATED DISEASES OR DISORDERS USING FADS-1 INHIBITORS” (AMGEN INC., priority 2022, published 2026)
